Experimental data published in patent US20240197756A1, “METHODS OF TREATMENT WITH NEUROACTIVE STEROIDS” (priority 2021, published 2024).
Like-named read-outs stand apart in the source and are kept apart here.

How the values were obtained:
[1] = Example 3 Part A: oral suspension administered at 4 p.m. vs 8 p.m., plasma pharmacokinetics; format: in vivo, human; conditions: for AUCinf / Cmax / AUC(0-inf) / Tmax / half-life: human, in vivo; for AUCinf / Cmax / AUC(0-inf) / Tmax: po; for AUC(0-inf): AUCinf
Description: Patients with severe major depressive disorder (MDD) aged 18 to 65 years were treated with an oral suspension or tablet of Compound 1 to study the effect of food and time of administration on the pharmacokinetics, as well as the safety and tolerability of these formulations.
Part A is an open-label, non-randomized, fixed-sequence crossover design to evaluate Compound 1 at 2 different administration times (4 p.m., approximately 4 hours after lunch and 2 hours prior to dinner, and at 8 p.m., approximately 4 hours after dinner). 16 participants were administered an oral suspension of Compound 1.
Preliminary pharmacokinetics data from Part A, where 45 mg and 60 mg of oral suspension were administered (Cohort 1), and Part C, where 40 mg (2×20 mg), 60 mg (3×20 mg) and 80 mg (4×20 mg) of the tablet formulation were administered, have been analyzed and are summarized below.

[2] = system: harmaline-induced tremor; experiment: rHIT model, coadministration of Compound 1 and Compound 2; format: in vivo, rat
Description: Rat Harmaline Induced Tremor (rHIT): The rHIT model was used to assess the impact of the combination of Compound 1 and Compound 2 on reducing the symptoms of tremor. Male SD rats (SLAC, Shanghai, China) weighing about 250 g at the time of testing were housed in a 12:12 light-dark cycle room throughout the study, with the lights on from 5 a.m. to 5 p.m, and fed ad libitum. […]
The rHIT methods described in Example 5 were used. […] After the 20-minute baseline recording, rats were dosed with harmaline and the post-harmaline effect was measured for 20 minutes. […]

[3] = system: GABAA receptors; experiment: Pre-clinical qEEG beta power and animal models of anxiety and depression; format: in vivo; conditions: pre-clinical studies
[4] = oral suspension 45 mg and 60 mg

COC[C@@]1(O)CC[C@@]2(C)[C@@H](CC[C@@H]3[C@@H]2CC[C@]2(C)[C@@H](C(=O)Cn4ccnc4)CC[C@@H]32)C1 [Compound 1, 3α-Hydroxy-3β-methoxymethyl-21-(1′-imidazolyl)-5α-pregnan-20-one]
AUCinf ([1]; 45 mg): 1880 ng·h/mL | Cmax ([1]; 45 mg): 157 ng/mL | AUC(0-inf) ([1]; 45 mg): 1800 ng·h/mL | Cmax ([1]; 45 mg, Cmax): 207 ng/mL | Tmax ([1]; 45 mg): 1.5 h | AUCinf ([1]; 60 mg): 2930 ng·h/mL | Cmax ([1]; 60 mg): 249 ng/mL | AUC(0-inf) ([1]; 60 mg): 2800 ng·h/mL | Cmax ([1]; 60 mg, Cmax): 282 ng/mL | Tmax ([1]; 60 mg): 1.5 h | half-life ([1]; oral suspension 45 mg and 60 mg, 4 p.m. and 8 p.m., range, read-out: Mean t1/2): 11.1 to 12.6 h | half-life ([1]; oral suspension 60 mg 4 PM (4 h after lunch, 2 h before dinner), N = 15, Mean, read-out: t1/2 (converted)): 12 h | t1/2 ([1]; oral suspension 45 mg 4 PM (4 h after lunch, 2 h before dinner), N = 16, Mean): 12.6 h | t1/2 ([1]; oral suspension 45 mg 8 PM (4 h after dinner), N = 15, Mean): 11.3 h | Cmax at 8 p.m. as compared to 4 p.m. [1, 4]: reduced | tmax at 8 p.m. as compared to 4 p.m. [1, 4]: delayed | AUCinf between the 2 administration times ([1]; oral suspension 45 mg and 60 mg, 4 p.m. vs 8 p.m.): comparable | t1/2 ([1]; oral suspension 60 mg 8 PM (4 h after dinner), N = 15, Mean): 11.1 h | first post-dose timepoint with appearance of concentrations ([1]; suspension at 4 p.m. or 8 p.m.): 0.25 h | last evaluated timepoint at which concentrations remained detectable ([1]; suspension at 4 p.m. or 8 p.m.): 72 h | mean concentrations following administration at 4 p.m. as compared to 8 p.m. ([1]; within the first 2 to 3 hours, 45 mg and 60 mg): higher | effect of Compound 1 on the efficacy of Compound 2 in treating tremor ([2]; Compound 1 3 mg/kg p.o.): does not inhibit | effect of the addition of Compound 1 on the tremor-reducing effects of Compound 2 ([2]; Compound 1 3 mg/kg p.o. (FIG. 11)): did not appear to enhance | increase in beta power associated with robust activity in animal models of anxiety and depression [3]: 1.6 fold
